Literature values in patent US20240410831A1, “Multi-Mode Zinc-Selective Emission-Ratiometric Fluorescent Probes for Biological Application” (Georgia Tech Research Corporation, priority 2023, published 2024).
Structures can show the parent of a compound that is named as a salt.

What was measured:
[1] = pH 7.0, 25° C.; read-out: Kd for Zn(II) of competing ligand; cited from earlier work
[2] = in 1.0 N H2SO4; cited from earlier work

O=C(O)CN(CCOCCOCCN(CC(=O)O)CC(=O)O)CC(=O)O [EGTA, ethyleneglycol-bis(β-aminoethyl)-N,N,N′,N′-tetraacetic acid]
Kd [1]: 4.6 nM

C=C[C@H]1C[N@@]2CC[C@H]1C[C@H]2[C@H](O)c1ccnc2ccc(OC)cc12 [quinine sulfate]
quantum yield of reference standard [2]: 0.546
